The target in the test is T1, STAT6 (Homo sapiens, UniProt P42226).
T1 construct: endogenous in cells; host or cells: MOLM-16, KU-812, SKNO1, MB231, L1236
T1 sequence (P42226 1-847): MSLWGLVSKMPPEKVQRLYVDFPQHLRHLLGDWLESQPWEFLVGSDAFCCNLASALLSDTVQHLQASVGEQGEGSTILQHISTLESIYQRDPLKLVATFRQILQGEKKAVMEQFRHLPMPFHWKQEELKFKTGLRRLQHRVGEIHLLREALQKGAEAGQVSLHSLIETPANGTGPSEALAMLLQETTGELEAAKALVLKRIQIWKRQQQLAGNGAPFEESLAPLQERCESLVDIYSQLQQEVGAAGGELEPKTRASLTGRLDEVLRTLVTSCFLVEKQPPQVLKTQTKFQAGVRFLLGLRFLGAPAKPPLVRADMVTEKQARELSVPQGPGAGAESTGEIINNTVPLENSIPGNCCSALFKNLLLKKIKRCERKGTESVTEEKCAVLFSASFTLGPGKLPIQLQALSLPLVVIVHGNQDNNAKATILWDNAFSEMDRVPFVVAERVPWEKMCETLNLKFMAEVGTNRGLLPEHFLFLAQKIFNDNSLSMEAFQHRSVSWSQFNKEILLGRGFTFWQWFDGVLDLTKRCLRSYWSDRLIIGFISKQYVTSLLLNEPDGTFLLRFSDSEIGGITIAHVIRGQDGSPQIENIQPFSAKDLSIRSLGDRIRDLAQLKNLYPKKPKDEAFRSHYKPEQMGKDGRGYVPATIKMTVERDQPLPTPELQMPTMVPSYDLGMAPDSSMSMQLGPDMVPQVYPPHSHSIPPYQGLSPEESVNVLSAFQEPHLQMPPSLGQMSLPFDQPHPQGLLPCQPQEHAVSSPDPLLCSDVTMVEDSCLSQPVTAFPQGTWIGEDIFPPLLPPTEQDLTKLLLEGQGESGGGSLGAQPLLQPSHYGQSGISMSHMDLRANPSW
In words: Immunoblotting (Western blot) analysis of STAT6 degradation efficiency of degraders in treated cells. It is filed as cell-based. The method in brief: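 Protein levels of STAT5 and STAT6 were assessed in cells cultured at 37 °C in 10% FBS medium after compound exposure, by quantitative fluorescent Western blotting normalised to equal loading and referenced to GAPDH.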

Setting [1] is: MOLM-16 cells, class symbols, read-out: DC50 S6 MOLM-16.
Setting [2] is: L1236 cells, read-out: DC50 S6 L1236.

Like-named read-outs stand apart in the source and are kept apart here.

For the molecule `Cc1ncsc1-c1ccc([C@H](CC(=O)NCCCCCCCCCC(=O)N[C@H]2C[C@@H](C(=O)N3CCO[C@H](c4ccccc4)C3)N(C(=O)[C@@H](NC(=O)c3cc4cc(C(F)(F)P(=O)(O)O)ccc4s3)C(C)(C)C)C2)NC(=O)[C@@H]2C[C@@H](O)CN2C(=O)[C@@H](NC(=O)C2(F)CC2)C(C)(C)C)cc1` [Compound 572, (difluoro(2-(((S)-1-((2S,4S)-4-(10-((S)-3-((2S,4R)-1-((S)-2-(1-fluorocyclopropane-1-carboxamido)-3,3-dimethylbutanoyl)-4-hydroxypyrrolidine-2-carboxamido)-3-(4-(4-methylthiazol-5-yl)phenyl)propanamido)decanamido)-2-((R)-2-phenylmorpholine-4-carbonyl)pyrrolidin-1-yl)-3,3-dimethyl-1-oxobutan-2-yl)carbamoyl)benzo[b]thiophen-5-yl)methyl)phosphonic acid], the DC50 under setting [1] was greater than 10 µM. Consider `Cc1ncsc1-c1ccc([C@H](C)NC(=O)[C@@H]2C[C@@H](O)CN2C(=O)[C@@H](NC(=O)CCCNC(=O)COc2ccc3c(c2)CN(C(=O)[C@@H](NC(=O)c2cc4cc(C(F)(F)P(=O)(O)O)ccc4s2)C(C)(C)C)[C@H](C(=O)N2CCO[C@H](c4ccccc4)C2)C3)C(C)(C)C)cc1` [Compound 463, (difluoro(2-(((S)-1-((S)-7-(2-((4-(((S)-1-((2S,4R)-4-hydroxy-2-(((S)-1-(4-(4-methylthiazol-5-yl)phenyl)ethyl)carbamoyl)pyrrolidin-1-yl)-3,3-dimethyl-1-oxobutan-2-yl)amino)-4-oxobutyl)amino)-2-oxoethoxy)-3-((R)-2-phenylmorpholine-4-carbonyl)-3,4-dihydroisoquinolin-2(1H)-yl)-3,3-dimethyl-1-oxobutan-2-yl)carbamoyl)benzo[b]thiophen-5-yl)methyl)phosphonic acid], for which the DC50 is greater than 10 µM under setting [2] and greater than 10 µM under setting [1]. For the molecule `CC(C)(C)[C@H](NC(=O)c1cc2cc(C(F)(F)P(=O)(O)O)ccc2s1)C(=O)N1Cc2cc(OCC(=O)NCC#Cc3ccc4c(c3)C(=O)N(C3CCC(=O)NC3=O)C4=O)ccc2C[C@H]1C(=O)N1CCC[C@H](c2ccccc2)C1` (stereo partly drawn) [Compound 550, ((2-(((2S)-1-((3S)-7-(2-((3-(2-(2,6-dioxopiperidin-3-yl)-1,3-dioxoisoindolin-5-yl)prop-2-yn-1-yl)amino)-2-oxoethoxy)-3-((R)-3-phenylpiperidine-1-carbonyl)-3,4-dihydroisoquinolin-2(1H)-yl)-3,3-dimethyl-1-oxobutan-2-yl)carbamoyl)benzo[b]thiophen-5-yl)difluoromethyl)phosphonic acid], the DC50 under setting [1] is greater than 10 µM. Turning to `CC(C)(C)[C@H](NC(=O)c1cc2cc(C(F)(F)P(=O)(O)O)ccc2s1)C(=O)N1Cc2cc(OCC(=O)NCCCCCC#Cc3cccc4c3C(=O)N(C3CCC(=O)NC3=O)C4=O)ccc2C[C@H]1C(=O)N1CCO[C@H](c2ccccc2)C1` (stereo partly drawn) [Compound 543, ((2-(((2S)-1-((3S)-7-(2-((7-(2-(2,6-dioxopiperidin-3-yl)-1,3-dioxoisoindolin-4-yl)hept-6-yn-1-yl)amino)-2-oxoethoxy)-3-((R)-2-phenylmorpholine-4-carbonyl)-3,4-dihydroisoquinolin-2(1H)-yl)-3,3-dimethyl-1-oxobutan-2-yl)carbamoyl)benzo[b]thiophen-5-y)difluoromethyl)phosphonic acid], the half-maximal degradation concentration (DC50) under setting [1] was greater than 10 µM. Still for that read-out and setting: in the case of `CC(C)(C)[C@H](NC(=O)c1cc2cc(C(F)(F)P(=O)(O)O)ccc2s1)C(=O)N1C[C@@H](OCC(=O)NCCCCC#Cc2ccc3c(c2)C(=O)N(C2CCC(=O)NC2=O)C3=O)C[C@H]1C(=O)N1CCC[C@H](c2ccccc2)C1` (stereo partly drawn) [Compound 500, ((2-(((2S)-1-((2S,4S)-4-(2-((6-(2-(2,6-dioxopiperidin-3-yl)-1,3-dioxoisoindolin-5-yl)hex-5-yn-1-yl)amino)-2-oxoethoxy)-2-((R)-3-phenylpiperidine-1-carbonyl)pyrrolidin-1-yl)-3,3-dimethyl-1-oxobutan-2-yl)carbamoyl)benzo[b]thiophen-5-yl)difluoromethyl)phosphonic acid] it was greater than 10 µM. As to `CC(C)(C)[C@H](NC(=O)c1cc2cc(C(F)(F)P(=O)(O)O)ccc2s1)C(=O)N1C[C@H](OCCCCCC#Cc2ccc3c(c2)CN(C2CCC(=O)NC2=O)C3=O)C[C@H]1C(=O)N1CCC[C@H](c2ccccc2)C1` (stereo partly drawn) [Compound 603, ((2-(((2S)-1-((2S,4R)-4-((7-(2-(2,6-dioxopiperidin-3-yl)-1-oxoisoindolin-5-yl)hept-6-yn-1-yl)oxy)-2-((R)-3-phenylpiperidine-1-carbonyl)pyrrolidin-1-yl)-3,3-dimethyl-1-oxobutan-2-yl)carbamoyl)benzo[b]thiophen-5-yl)difluoromethyl)phosphonic acid], the DC50 (MOLM-16 cells, numeric bound, read-out: DC50 S6 MOLM-16) is greater than 0.3 µM. As for `CC(C)(C)[C@H](NC(=O)c1cc2cc(C(F)(F)P(=O)(O)O)ccc2s1)C(=O)N1C[C@@H](OCCCCCCCCC#Cc2cccc3c2CN(C2CCC(=O)NC2=O)C3=O)C[C@H]1C(=O)N1CCO[C@H](c2ccccc2)C1` (stereo partly drawn) [Compound 586, ((2-(((2S)-1-((2S,4S)-4-((10-(2-(2,6-dioxopiperidin-3-yl)-1-oxoisoindolin-4-yl)dec-9-yn-1-yl)oxy)-2-((R)-2-phenylmorpholine-4-carbonyl)pyrrolidin-1-yl)-3,3-dimethyl-1-oxobutan-2-yl)carbamoyl)benzo[b]thiophen-5-yl)difluoromethyl)phosphonic acid], the half-maximal degradation concentration (DC50) by setting is: under setting [2], 1 to 10 µM; under setting [1], less than 0.1 µM. In the same order, the values of `Cc1ncsc1-c1ccc([C@H](C)NC(=O)[C@@H]2C[C@@H](O)CN2C(=O)[C@@H](NC(=O)CCCCCCCCCNC(=O)COc2ccc3c(c2)CN(C(=O)[C@@H](NC(=O)c2cc4cc(C(F)(F)P(=O)(O)O)ccc4s2)C(C)(C)C)[C@H](C(=O)N2CCO[C@H](c4ccccc4)C2)C3)C(C)(C)C)cc1` [Compound 469, (difluoro(2-(((S)-1-((S)-7-(2-((10-(((S)-1-((2S,4R)-4-hydroxy-2-(((S)-1-(4-(4-methylthiazol-5-yl)phenyl)ethyl)carbamoyl)pyrrolidin-1-yl)-3,3-dimethyl-1-oxobutan-2-yl)amino)-10-oxodecyl)amino)-2-oxoethoxy)-3-((R)-2-phenylmorpholine-4-carbonyl)-3,4-dihydroisoquinolin-2(1H)-yl)-3,3-dimethyl-1-oxobutan-2-yl)carbamoyl)benzo[b]thiophen-5-yl)methyl)phosphonic acid] are greater than 10 µM and greater than 10 µM. In the same order, the values of `Cc1ncsc1-c1ccc([C@H](C)NC(=O)[C@@H]2C[C@@H](O)CN2C(=O)[C@@H](NC(=O)CCCNC(=O)CC(=O)N2CCN(C(=O)[C@@H](NC(=O)c3cc4cc(C(F)(F)P(=O)(O)O)ccc4s3)C(C)(C)C)[C@H](C(=O)N3CCO[C@H](c4ccccc4)C3)C2)C(C)(C)C)cc1` [Compound 445, (difluoro(2-(((S)-1-((S)-4-(3-((4-(((S)-1-((2S,4R)-4-hydroxy-2-(((S)-1-(4-(4-methylthiazol-5-yl)phenyl)ethyl)carbamoyl)pyrrolidin-1-yl)-3,3-dimethyl-1-oxobutan-2-yl)amino)-4-oxobutyl)amino)-3-oxopropanoyl)-2-((R)-2-phenylmorpholine-4-carbonyl)piperazin-1-yl)-3,3-dimethyl-1-oxobutan-2-yl)carbamoyl)benzo[b]thiophen-5-yl)methyl)phosphonic acid] are greater than 10 µM and greater than 10 µM. Turning to `CC(C)(C)[C@H](NC(=O)c1cc2cc(C(F)(F)P(=O)(O)O)ccc2s1)C(=O)N1C[C@@H](OCC(=O)NCCCCCC#Cc2ccc3c(c2)C(=O)N(C2CCC(=O)NC2=O)C3=O)C[C@H]1C(=O)N1CCO[C@H](c2ccccc2)C1` (stereo partly drawn) [Compound 488, ((2-(((2S)-1-((2S,4S)-4-(2-((7-(2-(2,6-dioxopiperidin-3-yl)-1,3-dioxoisoindolin-5-yl)hept-6-yn-1-yl)amino)-2-oxoethoxy)-2-((R)-2-phenylmorpholine-4-carbonyl)pyrrolidin-1-yl)-3,3-dimethyl-1-oxobutan-2-yl)carbamoyl)benzo[b]thiophen-5-yl)difluoromethyl)phosphonic acid], the DC50 under setting [1] is greater than 10 µM.

In the case of `CC(C)(C)[C@H](NC(=O)c1cc2cc(C(F)(F)P(=O)(O)O)ccc2s1)C(=O)N1C[C@@H](OCC(=O)NCCCC#Cc2ccc3c(c2)C(=O)N(C2CCC(=O)NC2=O)C3=O)C[C@H]1C(=O)N1CCC[C@H](c2ccccc2)C1` (stereo partly drawn) [Compound 498, ((2-(((2S)-1-((2S,4S)-4-(2-((5-(2-(2,6-dioxopiperidin-3-yl)-1,3-dioxoisoindolin-5-yl)pent-4-yn-1-yl)amino)-2-oxoethoxy)-2-((R)-3-phenylpiperidine-1-carbonyl)pyrrolidin-1-yl)-3,3-dimethyl-1-oxobutan-2-yl)carbamoyl)benzo[b]thiophen-5-yl)difluoromethyl)phosphonic acid], the half-maximal degradation concentration (DC50) under setting [1] is greater than 10 µM.

(Values after US20230295197A1, “STAT5 and STAT6 Degraders and Uses Thereof” (REGENTS OF THE UNIVERSITY OF MICHICAN, priority 2022, published 2023).)
